Results published in publication PMC10318822, “Phase 1 dose-escalation study to evaluate the safety, tolerability, pharmacokinetics, and anti-tumor activity of FCN-159 in adults with neurofibromatosis type 1-related unresectable plexiform neurofibromas” (BMC Medicine, 2023).

Test system: adult patients with NF1-related PN
Experiment: Phase I dose-escalation: DLT, MTD, RP2D and drug-related TEAEs (CTCAE v5.0)
Experimental: This is a multicenter, open-label, single-arm, non-randomized, phase I dose-escalation trial to evaluate the safety, tolerability, pharmacokinetic (PK), and anti-tumor activity of orally administered FCN-159 in adult patients with NF1 (NCT04954001). Phase I commenced with dose escalation in adult patients following a standard 3 + 3 design (Supplementary Table S1) to determine the maximum tolerated dose (MTD) of FCN-159 administered daily under fasting conditions (defined as no food or drink 1 h before and 2 h after each dose) in 28-day cycles. Study drug was dispensed at the study site and patient adherence was monitored by the records of drug dispensation and return. Patients were on treatment until PD, death, patient's voluntary withdrawal from study treatment, or study termination. The study was followed for 2 years after the last patient in. The starting dose was 4 mg, escalating in cohorts of at least three evaluable patients at 6 mg, 8 mg, and 12 mg until the MTD was determined. The starting dose in this study was determined based on available data from a phase 1a, first-in-human study of FCN-159 in patients with advanced NRAS ^mut+ melanoma at the time of study design. […] Dose expansion at a likely RP2D level enrolled approximately six patients. The highest dose level with a dose-limiting toxicity (DLT) incidence rate ≤ 33% (0/3 or 1/6 patients) was to be considered the MTD. If patients experienced grade ≥ 3 and/or unacceptable toxic events that were considered as at least possibly related to the study treatment, the study treatment was discontinued and supportive treatment was given in accordance with local treatment routines. If the toxicity returned to grade ≤ 2 within 28 days after the occurrence, and there was no progression on patients’ conditions or the investigator believed that patients could benefit from the study treatment, the original dose could be maintained or reduced after discussion with medical monitor. After completion of the dose escalation part of the study, PK, efficacy, safety, and tolerability data were analyzed to select the RP2D.
Primary endpoints of the study were the DLT incidence rate, MTD, and RP2D. Secondary endpoints included other safety assessments, imaging tumor response (complete response [CR], PR, stable disease [SD], or progressive disease [PD]), and PK parameters of FCN-159. Adverse events were graded per CTCAE v5.0.
All patients underwent a complete medical history, physical examination, Eastern Cooperative Oncology Group (ECOG) assessment, and laboratory analysis of test results. Drug-related TEAEs, serious adverse events (SAEs), TEAEs of grade ≥ 3 toxicity, and TEAEs leading to drug discontinuation were reviewed on an ongoing basis. Efficacy was assessed by radiologic scans and clinical assessment. Tumor assessments per Response Evaluation in Neurofibromatosis Schwannomatosis criteria were performed by investigators using MRI volumetric analysis every 4 cycles within the first 2 years (± 7 days) and every 6 cycles after 2 years (± 14 days) until PD, death, patient's voluntary withdrawal from study treatment, or study termination. MRI sequences of […], T1- and T2-weighted sequences were chosen and the software of Extended Brilliance Workspace, SIGNA Premier and uExceed were used for MRI volumetric analysis. The same software was used for all tumor assessments at baseline and subsequent assessed timepoints of the same patient. Pain was assessed by an 11-point numerical rating scale (NRS-11).
The sample size for the dose-escalation study was estimated to be 24 based on the 3 + 3 method. Safety was analyzed in patients who received at least one dose of FCN-159 and had at least one safety assessment. DLT was assessed in the DLT analysis set, defined as patients who were enrolled in the dose-escalation study and met the DLT evaluation criteria.

In the case of `Cn1c(=O)c(F)c(Nc2ccc(I)cc2F)c2c(=O)n(C3CC3)nc(-c3cccc(NS(=O)(=O)C4CC4)c3)c21` [FCN-159], the DLT events (4 mg) is reported as “No DLT events were observed”, the “Drug-related TEAE: Abdominal pain” value (4 mg (N = 3)) is reported as 0 n (%) and the “Drug-related TEAE: Acne” value (4 mg (N = 3)) is reported as 0 n (%). For the same compound, the “Drug-related TEAE: Acne pustular” value (4 mg (N = 3)) was 0 n (%), the “Drug-related TEAE: Alanine aminotransferase increased” value (4 mg (N = 3)) was 0 n (%) and the “Drug-related TEAE: Albumin globulin ratio decreased” value (4 mg (N = 3)) was 0 n (%). For the same compound, the “Drug-related TEAE: Alopecia” value (4 mg (N = 3)) was 0 n (%), the “Drug-related TEAE: Amylase increased” value (4 mg (N = 3)) was 0 n (%) and the “Drug-related TEAE: Anemia” value (4 mg (N = 3)) was 0 n (%). The “Drug-related TEAE: Aortic dilatation” value (4 mg (N = 3)) was 0 n (%), the “Drug-related TEAE: Aspartate aminotransferase increased” value (4 mg (N = 3)) was 0 n (%) and the “Drug-related TEAE: Asthenia” value (4 mg (N = 3)) was 0 n (%). The “Drug-related TEAE: Beta globulin decreased” value (4 mg (N = 3)) was 1 (33.3) n (%), the “Drug-related TEAE: Beta globulin increased” value (4 mg (N = 3)) was 1 (33.3) n (%) and the “Drug-related TEAE: Blood alkaline phosphatase increased” value (4 mg (N = 3)) was 0 n (%). The “Drug-related TEAE: Blood bilirubin increased” value (4 mg (N = 3)) was 1 (33.3) n (%), the “Drug-related TEAE: Blood creatine phosphokinase increased” value (4 mg (N = 3)) was 1 (33.3) n (%) and the “Drug-related TEAE: Blood fibrinogen increased” value (4 mg (N = 3)) was 0 n (%). For the same compound, the “Drug-related TEAE: Blood lactate dehydrogenase increased” value (4 mg (N = 3)) was 1 (33.3) n (%), the “Drug-related TEAE: Blood pressure increased” value (4 mg (N = 3)) was 0 n (%) and the “Drug-related TEAE: Blood urea increased” value (4 mg (N = 3)) was 1 (33.3) n (%). The “Drug-related TEAE: Blood uric acid increased” value (4 mg (N = 3)) was 1 (33.3) n (%), the “Drug-related TEAE: Breath odor” value (4 mg (N = 3)) was 0 n (%) and the “Drug-related TEAE: Capillary disorder” value (4 mg (N = 3)) was 1 (33.3) n (%). For the same compound, the “Drug-related TEAE: Constipation” value (4 mg (N = 3)) was 0 n (%), the “Drug-related TEAE: Decreased appetite” value (4 mg (N = 3)) was 0 n (%) and the “Drug-related TEAE: Dermatitis acneiform” value (4 mg (N = 3)) was 0 n (%). For the same compound, the “Drug-related TEAE: Diarrhea” value (4 mg (N = 3)) was 0 n (%), the “Drug-related TEAE: Drug eruption” value (4 mg (N = 3)) was 1 (33.3) n (%) and the “Drug-related TEAE: Dyslipidemia” value (4 mg (N = 3)) was 1 (33.3) n (%). The “Drug-related TEAE: Ejection fraction decreased” value (4 mg (N = 3)) was 0 n (%), the “Drug-related TEAE: Electrocardiogram QT prolonged” value (4 mg (N = 3)) was 0 n (%) and the “Drug-related TEAE: Electrocardiogram abnormal” value (4 mg (N = 3)) was 0 n (%). The “Drug-related TEAE: Epistaxis” value (4 mg (N = 3)) was 1 (33.3) n (%), the “Drug-related TEAE: Folliculitis” value (4 mg (N = 3)) was 0 n (%) and the “Drug-related TEAE: Functional gastrointestinal disorder” value (4 mg (N = 3)) was 0 n (%). For the same compound, the “Drug-related TEAE: Gamma-glutamyltransferase increased” value (4 mg (N = 3)) was 0 n (%), the “Drug-related TEAE: Gingival pain” value (4 mg (N = 3)) was 0 n (%) and the “Drug-related TEAE: Hyperlipidemia” value (4 mg (N = 3)) was 0 n (%). The “Drug-related TEAE: Hypertension” value (4 mg (N = 3)) was 0 n (%), the “Drug-related TEAE: Hypoalbuminemia” value (4 mg (N = 3)) was 0 n (%) and the “Drug-related TEAE: Hypocalcemia” value (4 mg (N = 3)) was 0 n (%). For the same compound, the “Drug-related TEAE: Hypophosphatemia” value (4 mg (N = 3)) was 0 n (%), the “Drug-related TEAE: Hypoproteinemia” value (4 mg (N = 3)) was 0 n (%) and the “Drug-related TEAE: Immunoglobulins increased” value (4 mg (N = 3)) was 2 (66.7) n (%). The “Drug-related TEAE: Impetigo” value (4 mg (N = 3)) was 1 (33.3) n (%), the “Drug-related TEAE: Left atrial enlargement” value (4 mg (N = 3)) was 0 n (%) and the “Drug-related TEAE: Lipoprotein abnormal” value (4 mg (N = 3)) was 1 (33.3) n (%). For the same compound, the “Drug-related TEAE: Malaise” value (4 mg (N = 3)) was 1 (33.3) n (%), the “Drug-related TEAE: Menstrual disorder” value (4 mg (N = 3)) was 0 n (%) and the “Drug-related TEAE: Mitral valve incompetence” value (4 mg (N = 3)) was 0 n (%). The “Drug-related TEAE: Mouth ulceration” value (4 mg (N = 3)) was 0 n (%), the “Drug-related TEAE: Muscular weakness” value (4 mg (N = 3)) was 0 n (%) and the “Drug-related TEAE: Oedema peripheral” value (4 mg (N = 3)) was 0 n (%). For the same compound, the “Drug-related TEAE: Pain in extremity” value (4 mg (N = 3)) was 1 (33.3) n (%), the “Drug-related TEAE: Paronychia” value (4 mg (N = 3)) was 1 (33.3) n (%) and the “Drug-related TEAE: Prealbumin decreased” value (4 mg (N = 3)) was 0 n (%). The “Drug-related TEAE: Protein urine present” value (4 mg (N = 3)) was 1 (33.3) n (%), the “Drug-related TEAE: Pruritus” value (4 mg (N = 3)) was 0 n (%) and the “Drug-related TEAE: QRS axis abnormal” value (4 mg (N = 3)) was 1 (33.3) n (%). The “Drug-related TEAE: Rash” value (4 mg (N = 3)) was 1 (33.3) n (%), the “Drug-related TEAE: Sinus arrhythmia” value (4 mg (N = 3)) was 1 (33.3) n (%) and the “Drug-related TEAE: Sinus bradycardia” value (4 mg (N = 3)) was 1 (33.3) n (%). For the same compound, the “Drug-related TEAE: Sinusitis” value (4 mg (N = 3)) was 0 n (%), the “Drug-related TEAE: Skin exfoliation” value (4 mg (N = 3)) was 0 n (%) and the “Drug-related TEAE: Specific gravity urine increased” value (4 mg (N = 3)) was 1 (33.3) n (%). For the same compound, the “Drug-related TEAE: Stomatitis” value (4 mg (N = 3)) was 2 (66.7) n (%), the “Drug-related TEAE: Supraventricular extrasystoles” value (4 mg (N = 3)) was 1 (33.3) n (%) and the “Drug-related TEAE: Total bile acids increased” value (4 mg (N = 3)) was 1 (33.3) n (%). For the same compound, the “Drug-related TEAE: Tricuspid valve incompetence” value (4 mg (N = 3)) was 0 n (%), the “Drug-related TEAE: Urinary occult blood positive” value (4 mg (N = 3)) was 0 n (%) and the “Drug-related TEAE: Urinary sediment present” value (4 mg (N = 3)) was 0 n (%). For the same compound, the “Drug-related TEAE: Urinary tract infection” value (4 mg (N = 3)) was 0 n (%), the “Drug-related TEAE: Urine ketone body present” value (4 mg (N = 3)) was 0 n (%) and the “Drug-related TEAE: Urobilinogen urine increased” value (4 mg (N = 3)) was 2 (66.7) n (%). The “Drug-related TEAE: Urticaria” value (4 mg (N = 3)) was 0 n (%), the “Drug-related TEAE: Vision blurred” value (4 mg (N = 3)) was 0 n (%) and the “Drug-related TEAE: Visual acuity reduced” value (4 mg (N = 3)) was 0 n (%). The “Drug-related TEAE: pH urine decreased” value (4 mg (N = 3)) was 0 n (%), the “Drug-related TEAE: pH urine increased” value (4 mg (N = 3)) was 1 (33.3) n (%) and the “Subjects with any drug-related TEAE” value (4 mg (N = 3)) was 3 (100) n (%). For the same compound, the DLT events (6 mg) was “No DLT events were observed”, the “Drug-related TEAE: Abdominal pain” value (6 mg (N = 4)) was 0 n (%) and the “Drug-related TEAE: Acne” value (6 mg (N = 4)) was 1 (25.0) n (%). The “Drug-related TEAE: Acne pustular” value (6 mg (N = 4)) was 0 n (%), the “Drug-related TEAE: Alanine aminotransferase increased” value (6 mg (N = 4)) was 1 (25.0) n (%) and the “Drug-related TEAE: Albumin globulin ratio decreased” value (6 mg (N = 4)) was 0 n (%). The “Drug-related TEAE: Alopecia” value (6 mg (N = 4)) was 1 (25.0) n (%), the “Drug-related TEAE: Amylase increased” value (6 mg (N = 4)) was 0 n (%) and the “Drug-related TEAE: Anemia” value (6 mg (N = 4)) was 0 n (%). The “Drug-related TEAE: Aortic dilatation” value (6 mg (N = 4)) was 0 n (%), the “Drug-related TEAE: Aspartate aminotransferase increased” value (6 mg (N = 4)) was 2 (50.0) n (%) and the “Drug-related TEAE: Asthenia” value (6 mg (N = 4)) was 1 (25.0) n (%). The “Drug-related TEAE: Beta globulin decreased” value (6 mg (N = 4)) was 0 n (%), the “Drug-related TEAE: Beta globulin increased” value (6 mg (N = 4)) was 1 (25.0) n (%) and the “Drug-related TEAE: Blood alkaline phosphatase increased” value (6 mg (N = 4)) was 1 (25.0) n (%). The “Drug-related TEAE: Blood bilirubin increased” value (6 mg (N = 4)) was 2 (50.0) n (%), the “Drug-related TEAE: Blood creatine phosphokinase increased” value (6 mg (N = 4)) was 0 n (%) and the “Drug-related TEAE: Blood fibrinogen increased” value (6 mg (N = 4)) was 0 n (%). The “Drug-related TEAE: Blood lactate dehydrogenase increased” value (6 mg (N = 4)) was 1 (25.0) n (%), the “Drug-related TEAE: Blood pressure increased” value (6 mg (N = 4)) was 0 n (%) and the “Drug-related TEAE: Blood urea increased” value (6 mg (N = 4)) was 2 (50.0) n (%). For the same compound, the “Drug-related TEAE: Blood uric acid increased” value (6 mg (N = 4)) was 1 (25.0) n (%), the “Drug-related TEAE: Breath odor” value (6 mg (N = 4)) was 2 (50.0) n (%) and the “Drug-related TEAE: Capillary disorder” value (6 mg (N = 4)) was 0 n (%). For the same compound, the “Drug-related TEAE: Constipation” value (6 mg (N = 4)) was 0 n (%).
